Reference: ChEMBL document CHEMBL5584339, “Design, Synthesis, and Evaluation of the Antitubercular Activity of 5-Phenyl Substituted-5, 6-dihydropyrido[2, 3-d]pyrimidine-4, 7(3H, 8H)-dione Compounds” (J Med Chem, 2024)
In brackets after ≈: the same amount, converted by molar mass. Activity calls are given as the source filed them. The rule behind the calls is not given here.

Tests used:
[1] = tested on: Mycobacterium tuberculosis; experiment: Antitubercular activity against Mycobacterium tuberculosis H37Rv incubated for 7 days by alamar blue assay; type: functional; conditions: 168 h, time 7 day
[2] = Selectivity index, ratio of IC50 for african green monkey Vero cells to IC50 for Mycobacterium tuberculosis H37Rv; type: toxicity; conditions: read-out: Ratio IC50
[3] = Cytotoxicity against african green monkey Vero cells incubated for 48 hrs by CCK8 assay; type: toxicity, cell-based, Chlorocebus sabaeus
[4] = Metabolic stability in mouse liver microsomes assessed as intrinsic clearance per mg protein at 2 uM preincubated for 60 mins followed by NADPH addition and measured upto 60 mins by LC-MS analysis; type: ADME, Microsome; conditions: time < 120 min, read-out: CLH
[5] = Metabolic stability in human liver microsomes assessed as intrinsic clearance per mg protein at 2 uM preincubated for 60 mins followed by NADPH addition and measured upto 60 mins by LC-MS analysis; type: ADME, Microsome; conditions: time < 120 min, read-out: CLH
[6] = Metabolic stability in human liver microsomes assessed as half-life at 2 uM preincubated for 60 mins followed by NADPH addition and measured upto 60 mins by LC-MS analysis; type: ADME, Microsome; conditions: time < 120 min
[7] = Metabolic stability in human liver microsomes assessed as substrate remaining at 2 uM preincubated for 60 mins followed by NADPH addition and measured upto 60 mins by LC-MS analysis; type: ADME, Microsome; conditions: time < 120 min, read-out: Stability
[8] = Metabolic stability in mouse liver microsomes assessed as half-life at 2 uM preincubated for 60 mins followed by NADPH addition and measured upto 60 mins by LC-MS analysis; type: ADME, Microsome; conditions: time < 120 min
[9] = Cytotoxicity against HK-2 cells incubated for 48 hrs by CCK8 assay; type: toxicity, cell-based; conditions: human
[10] = Metabolic stability in mouse liver microsomes assessed as substrate remaining at 2 uM preincubated for 60 mins followed by NADPH addition and measured upto 60 mins by LC-MS analysis; type: ADME, Microsome; conditions: time < 120 min, read-out: Stability
[11] = tested on: Mycobacterium tuberculosis; experiment: Binding affinity to Mycobacterium tuberculosis AccD5 at 10 uM by SPR analysis

Structure (SMILES)	MIC [1] [µg/mL]	selectivity ratio [2]	IC50 at 48 h [3] [µg/mL]	also measured
CCCS(=O)(=O)c1nc2c(c(=O)[nH]1)[C@@H](c1ccc(OC)cc1[N+](=O)[O-])CC(=O)N2	> 32			
NNC(=O)c1ccncc1 [ISONIAZID]	0.05 (≈ 0.365 µM)	> 2000	> 100	
CCCSc1nc2c(c(=O)n1C)C(c1ccc(OC)cc1)CC(=O)N2C (stereo unspecified)	> 10		46.5 (≈ 124 µM)	
CCCSc1nc2c(c(=O)[nH]1)C(c1ccc(OC)c(N)c1)CC(=O)N2 (stereo unspecified)	2 (≈ 5.55 µM)	> 50	> 100	
CCCS(=O)(=O)c1nc2c(c(=O)[nH]1)[C@H](c1ccc(OC)cc1)CC(=O)N2	> 32			
COc1ccc(C2CC(=O)Nc3nc(SC)[nH]c(=O)c32)c(O)c1 (stereo unspecified)	> 10		> 100	
CCCOc1ccc(C2CC(=O)Nc3nc(SCCC)[nH]c(=O)c32)c(O)c1 (stereo unspecified)	1.23 (≈ 3.16 µM)	35.6	43.9 (≈ 113 µM)	
CCCCSc1nc2c(c(=O)[nH]1)C(c1ccc(OC)c(O)c1)CC(=O)N2 (stereo unspecified)	3.19 (≈ 8.5 µM)	12.6	40.1 (≈ 107 µM)	
CCCCSc1nc2c(c(=O)[nH]1)C(c1ccc(OC)cc1)CC(=O)N2 (stereo unspecified)	0.5 (≈ 1.39 µM)	93.1	46.3 (≈ 129 µM)	
CCCSc1nc2c(c(=O)[nH]1)C(c1ccc(OC)cc1[N+](=O)[O-])CC(=O)N2 (racemic)	0.12 (≈ 0.307 µM)	> 833	> 100	microsomal CLint at 2 µM [4]: 14.2 µL/min/mg; microsomal CLint at 2 µM [5]: 11.2 µL/min/mg; half-life at 2 µM [6]: 124 min; remaining at 1 h, 2 µM [7]: 73.7%; half-life at 2 µM [8]: 97.3 min; IC50 at 48 h [9]: > 100 µg/mL; remaining at 1 h, 2 µM [10]: 66.8%
CCCSc1nc2c(c(=O)[nH]1)C(c1cc(OC)c(OC)c(OC)c1)CC(=O)N2 (stereo unspecified)	> 10		> 100	
CCC[S+]([O-])c1nc2c(c(=O)[nH]1)[C@@H](c1ccc(OC)cc1)CC(=O)N2 (stereo partly specified)	> 32			
CCCSc1nc2c(c(=O)[nH]1)C(c1ccc(OC)c(OC)c1)CC(=O)N2 (stereo unspecified)	> 10	< 2	20.4 (≈ 54.5 µM)	
CCCSc1nc2c(c(=O)[nH]1)C(c1ccccc1)CC(=O)N2 (stereo unspecified)	9.66 (≈ 30.6 µM)	3.3	31.9 (≈ 101 µM)	
CCCSc1nc2c(c(=O)n1C)C(c1ccccc1)CC(=O)N2C (stereo unspecified)	> 10			
CCC[S+]([O-])c1nc2c(c(=O)[nH]1)[C@@H](c1ccc(OC)cc1[N+](=O)[O-])CC(=O)N2 (stereo partly specified)	> 32			
CCCCSc1nc2c(c(=O)[nH]1)C(c1ccc(OC)cc1O)CC(=O)N2 (stereo unspecified)	4.65 (≈ 12.4 µM)	8.87	41.2 (≈ 110 µM)	
CCCSc1nc2c(c(=O)[nH]1)[C@H](c1ccc(OC)cc1[N+](=O)[O-])CC(=O)N2	7.72 (≈ 19.8 µM)		> 64	Activity [11]: inactive; IC50 at 48 h [9]: 56.2 µg/mL (≈ 144 µM)
C=CCSc1nc2c(c(=O)[nH]1)C(c1ccc(OC)c(O)c1)CC(=O)N2 (stereo unspecified)	2.19 (≈ 6.09 µM)	> 45.7	> 100	
COc1ccc(C2CC(=O)Nc3nc(SC)[nH]c(=O)c32)cc1O (stereo unspecified)	> 10		> 100	
CCCCCCCOc1ccc(C2CC(=O)Nc3nc(SCCC)[nH]c(=O)c32)cc1 (stereo unspecified)	> 10		36.6 (≈ 85.1 µM)	
CCCSc1nc2c(c(=O)[nH]1)C(c1ccc(OC)cc1N)CC(=O)N2 (stereo unspecified)	> 10		> 100	
CCCOc1ccc(C2CC(=O)Nc3nc(SC)[nH]c(=O)c32)cc1 (stereo unspecified)	> 10	< 5.4	53.5 (≈ 155 µM)	
C=CCSc1nc2c(c(=O)[nH]1)C(c1ccc(OCC)cc1)CC(=O)N2 (stereo unspecified)	1 (≈ 2.8 µM)	> 500	> 100	

Structure (SMILES)	MIC [1] [µg/mL]	selectivity ratio [2]	IC50 at 48 h [3] [µg/mL]	also measured
CCCSc1nc2c(c(=O)[nH]1)C(c1ccc(OC)c([N+](=O)[O-])c1)CC(=O)N2 (stereo unspecified)	4.84 (≈ 12.4 µM)	14	67.5 (≈ 173 µM)	
CCCSc1nc2c(c(=O)[nH]1)C(c1ccc(OCC(C)C)cc1)CC(=O)N2 (stereo unspecified)	> 10		41.5 (≈ 107 µM)	
COc1ccc(C2CC(=O)Nc3nc(SC)[nH]c(=O)c32)cc1 (stereo unspecified)	9.24 (≈ 29.1 µM)	3.32	30.7 (≈ 96.6 µM)	
CCC[S+]([O-])c1nc2c(c(=O)[nH]1)[C@H](c1ccc(OC)cc1[N+](=O)[O-])CC(=O)N2 (stereo partly specified)	> 32			
CCCSc1nc2c(c(=O)[nH]1)C(c1ccc(OC)cc1O)CC(=O)N2 (stereo unspecified)	0.95 (≈ 2.63 µM)	56.9	54.1 (≈ 150 µM)	
CCCCSc1nc2c(c(=O)[nH]1)C(c1ccc(OCCC)cc1)CC(=O)N2 (stereo unspecified)	> 10		57 (≈ 147 µM)	
CCC[S+]([O-])c1nc2c(c(=O)[nH]1)[C@H](c1ccc(OC)cc1)CC(=O)N2 (stereo partly specified)	> 32			
CCCSc1nc2c(c(=O)[nH]1)C(c1ccccc1)CC(=O)N2C (stereo unspecified)	> 10	< 5.2	52.5 (≈ 159 µM)	
CCCSc1nc2c(c(=O)[nH]1)C(c1ccc(OC)cc1)CC(=O)N2 (racemic)	0.16 (≈ 0.463 µM)	93	14.5 (≈ 42 µM)	microsomal CLint at 2 µM [4]: 2.48 µL/min/mg; microsomal CLint at 2 µM [5]: 5.85 µL/min/mg; half-life at 2 µM [6]: 237 min; remaining at 1 h, 2 µM [7]: 83.4%; half-life at 2 µM [8]: 560 min; IC50 at 48 h [9]: 24.8 µg/mL (≈ 71.7 µM); remaining at 1 h, 2 µM [10]: 87.6%
CCCS(=O)(=O)c1nc2c(c(=O)[nH]1)[C@H](c1ccc(OC)cc1[N+](=O)[O-])CC(=O)N2	> 32			
COc1ccc(C2CC(=O)Nc3nc(SC(C)C)[nH]c(=O)c32)cc1 (stereo unspecified)	2.27 (≈ 6.57 µM)	> 44.1	> 100	
CCCSc1nc2c(c(=O)[nH]1)C(c1ccc(OC)cc1)CC(=O)N2C (stereo unspecified)	> 10		53.6 (≈ 149 µM)	
CCCSc1nc2c(c(=O)[nH]1)C(c1ccc(OC(C)C)cc1)CC(=O)N2 (stereo unspecified)	2.12 (≈ 5.68 µM)	11.7	24.9 (≈ 66.7 µM)	
C=CCSc1nc2c(c(=O)[nH]1)C(c1ccc(OC)cc1)CC(=O)N2 (stereo unspecified)	0.5 (≈ 1.46 µM)	82.2	41.1 (≈ 120 µM)	
C=CCSc1nc2c(c(=O)[nH]1)C(c1ccc(OC)cc1O)CC(=O)N2 (stereo unspecified)	0.99 (≈ 2.75 µM)	> 101	> 100	
CCCSc1nc2c(c(=O)[nH]1)[C@H](c1ccc(OC)cc1)CC(=O)N2	7.83 (≈ 22.7 µM)		> 64	IC50 at 48 h [9]: 73.1 µg/mL (≈ 212 µM)
CCCSc1nc2c(c(=O)[nH]1)C(c1ccc(OC)c(O)c1O)CC(=O)N2 (stereo unspecified)	> 10		27.5 (≈ 72.9 µM)	
C=CCSc1nc2c(c(=O)[nH]1)C(c1ccc(OC)cc1[N+](=O)[O-])CC(=O)N2 (stereo unspecified)	0.5 (≈ 1.29 µM)	> 200	> 100	
CCCOc1ccc(C2CC(=O)Nc3nc(SCCC)[nH]c(=O)c32)cc1O (stereo unspecified)	4.73 (≈ 12.1 µM)	21	99.3 (≈ 255 µM)	
CCCS(=O)(=O)c1nc2c(c(=O)[nH]1)[C@@H](c1ccc(OC)cc1)CC(=O)N2	> 32			
CCCSc1nc2c(c(=O)[nH]1)C(c1ccc(OCC)cc1)CC(=O)N2 (stereo unspecified)	0.35 (≈ 0.974 µM)	174	60.1 (≈ 167 µM)	
CCCSc1nc2c(c(=O)[nH]1)C(c1ccc(OC)c(O)c1)CC(=O)N2 (stereo unspecified)	1.22 (≈ 3.38 µM)	> 82.1	> 100	
C=CCSc1nc2c(c(=O)[nH]1)C(c1ccc(OCCC)cc1)CC(=O)N2 (stereo unspecified)	1.98 (≈ 5.33 µM)	2.31	4.57 (≈ 12.3 µM)	
CCCOc1ccc(C2CC(=O)Nc3nc(SCCC)[nH]c(=O)c32)cc1 (stereo unspecified)	1 (≈ 2.68 µM)	12.1	12.1 (≈ 32.3 µM)	
